Results: PubChem BioAssay AID1259407 (Chemical Carcinogenesis Research Information System (CCRIS), 2018)
Calls of active or inactive are those of the source. No rule for the calls is given here.

System: CCRIS mutagenicity, Ames/micronucleus/aberration tests
Assay: CCRIS mutagenicity studies
[1] = Test System: AMES SALMONELLA TYPHIMURIUM, Strain/Indicator: TA98, Metabolic Activation: RAT, LIVER, S-9, AROCLOR 1254, Method: STANDARD PLATE

`Cc1cnc2ccc3c(nc(N)n3C)c2n1` was tested, and the mutagenic call (End Point: IN VIVO MICRONUCLEUS, Test System: BONE MARROW POLYCHROMATIC ERYTHROCYTES, Species: MOUSE, Strain/Sex: BALB/C/MALE, Route: IP INJECTION) was “inactive; negative”, the mutagenic call (Test System: AMES SALMONELLA TYPHIMURIUM, Strain/Indicator: TA98, Metabolic Activation: CYNOMOLGUS MONKEY, LIVER, MICROSOMES, Method: PREINCUBATION) was “inactive; negative” and the mutagenic call (Test System: AMES SALMONELLA TYPHIMURIUM, Strain/Indicator: TA98, Metabolic Activation: CYNOMOLOGUS MONKEY, LIVER, MICROSOMES, 2,3,7,8-TETRACHLORODIBENZO-P-DIOXIN, Method: PREINCUBATION) was “active; positive”. For the same molecule, the mutagenic call (Test System: AMES SALMONELLA TYPHIMURIUM, Strain/Indicator: TA98, Metabolic Activation: CYNOMOLOGUS MONKEY, LIVER, MICROSOMES, 2-AMINO-3-METHYLIMIDAZO[4,5-F]QUINOLINE, Method: PREINCUBATION) was “active; positive”, the mutagenic call (Test System: AMES SALMONELLA TYPHIMURIUM, Strain/Indicator: TA98, Metabolic Activation: CYNOMOLOGUS MONKEY, LIVER, MICROSOMES, RIFAMPICIN, Method: PREINCUBATION) was “inactive; negative” and the mutagenic call (Test System: AMES SALMONELLA TYPHIMURIUM, Strain/Indicator: TA98, Metabolic Activation: HUMAN, LIVER, MICROSOMES, Method: PREINCUBATION) was “active; positive”. For the same molecule, the mutagenic call (Test System: AMES SALMONELLA TYPHIMURIUM, Strain/Indicator: TA98, Metabolic Activation: MONKEY, LIVER, MICROSOMES, Method: PREINCUBATION) was “active; positive”, the mutagenic call (Test System: AMES SALMONELLA TYPHIMURIUM, Strain/Indicator: TA98, Metabolic Activation: NONE, Method: PREINCUBATION) was “inactive; negative” and the mutagenic call (Test System: AMES SALMONELLA TYPHIMURIUM, Strain/Indicator: TA98, Metabolic Activation: PATAS MONKEY, LIVER, MICROSOMES, Method: PREINCUBATION) was “active; positive”. For the same molecule, the mutagenic call (Test System: AMES SALMONELLA TYPHIMURIUM, Strain/Indicator: TA98, Metabolic Activation: RABBIT (6 TO 9 D OF AGE), LIVER, MICROSOMES, 3-METHYLCHOLANTHRENE, Method: PREINCUBATION) was “inactive; negative”, the mutagenic call (Test System: AMES SALMONELLA TYPHIMURIUM, Strain/Indicator: TA98, Metabolic Activation: RABBIT (6 TO 17 D OF AGE), LIVER, MICROSOMES, Method: PREINCUBATION) was “inactive; negative” and the mutagenic call (Test System: AMES SALMONELLA TYPHIMURIUM, Strain/Indicator: TA98, Metabolic Activation: RABBIT (9 D OF AGE TO ADULT), LIVER, MICROSOMES, 3-METHYLCHOLANTHRENE, Method: PREINCUBATION) was “active; positive”. For the same molecule, the mutagenic call (Test System: AMES SALMONELLA TYPHIMURIUM, Strain/Indicator: TA98, Metabolic Activation: RABBIT (17 D OF AGE TO ADULT), LIVER, MICROSOMES, Method: PREINCUBATION) was “active; positive”, the mutagenic call (Test System: AMES SALMONELLA TYPHIMURIUM, Strain/Indicator: TA98, Metabolic Activation: RAT, LIVER, MICROSOMES, Method: PREINCUBATION) was “active; positive” and the mutagenic call (Test System: AMES SALMONELLA TYPHIMURIUM, Strain/Indicator: TA98, Metabolic Activation: RAT, LIVER, S-9, AROCLOR 1254, Method: PREINCUBATION) was “active; positive”. The mutagenic call [1] was “active; positive”, the mutagenic call (Test System: AMES SALMONELLA TYPHIMURIUM, Strain/Indicator: TA100, Metabolic Activation: NONE, Method: PREINCUBATION) was “inactive; negative” and the mutagenic call (Test System: AMES SALMONELLA TYPHIMURIUM, Strain/Indicator: TA100, Metabolic Activation: RAT, LIVER, S-9, AROCLOR 1254, Method: PREINCUBATION) was “active; positive”. The mutagenic call (Test System: AMES SALMONELLA TYPHIMURIUM, Strain/Indicator: YG1019, Metabolic Activation: RAT LIVER S-9, AROCLOR, Method: PREINCUBATION) was “active; positive”, the mutagenic call (Test System: CHINESE HAMSTER V-79, Strain/Indicator: V-79/6-THIOGUANINE, Metabolic Activation: RAT, LIVER, S-9, AROCLOR 1254) was “inactive; negative” and the mutagenic call (Test System: UDS HAMSTER HEPATOCYTES, Strain/Indicator: THY INCORP, Metabolic Activation: NONE, Method: LIQUID SCINTILLATION COUNTING) was “active; positive”. The mutagenic call (Test System: UDS HUMAN HEPATOCYTES, Strain/Indicator: THY INCORP, Metabolic Activation: NONE, Method: AUTORADIOGRAPHY) was “active; positive”, the mutagenic call (Test System: UDS MOUSE HEPATOCYTES, Strain/Indicator: THY INCORP, Metabolic Activation: NONE, Method: AUTORADIOGRAPHY) was “inactive; negative” and the mutagenic call (Test System: UDS RAT HEPATOCYTES, Strain/Indicator: THY INCORP, Metabolic Activation: NONE, Method: AUTORADIOGRAPHY) was “inactive; negative”. The mutagenic call (Test System: UDS RAT HEPATOCYTES, Strain/Indicator: THY INCORP, Metabolic Activation: NONE, Method: LIQUID SCINTILLATION COUNTING) was “inactive; negative”.
In the case of `Cc1c2ccccc2cc2ccccc12`, the mutagenic call (Test System: AMES SALMONELLA TYPHIMURIUM, Strain/Indicator: TA97, Metabolic Activation: NONE, Method: STANDARD PLATE) was “inactive; negative”, the mutagenic call (Test System: AMES SALMONELLA TYPHIMURIUM, Strain/Indicator: TA97, Metabolic Activation: RAT, LIVER, S-9, PCB, Method: STANDARD PLATE) was “active; positive” and the mutagenic call (Test System: AMES SALMONELLA TYPHIMURIUM, Strain/Indicator: TA98, Metabolic Activation: NONE, Method: STANDARD PLATE) was “inactive; negative”. The mutagenic call [1] was “active; positive”, the mutagenic call (Test System: AMES SALMONELLA TYPHIMURIUM, Strain/Indicator: TA98, Metabolic Activation: RAT, LIVER, S-9, PCB, Method: STANDARD PLATE) was “active; positive” and the mutagenic call (Test System: AMES SALMONELLA TYPHIMURIUM, Strain/Indicator: TA100, Metabolic Activation: NONE, Method: STANDARD PLATE) was “inactive; negative”. The mutagenic call (Test System: AMES SALMONELLA TYPHIMURIUM, Strain/Indicator: TA100, Metabolic Activation: RAT, LIVER, S-9, AROCLOR 1254, Method: STANDARD PLATE) was “inactive; negative” and the mutagenic call (Test System: AMES SALMONELLA TYPHIMURIUM, Strain/Indicator: TA100, Metabolic Activation: RAT, LIVER, S-9, PCB, Method: STANDARD PLATE) was “active; positive”.
